Values joined by “and” are separate entries in the source; they are usually repeats but may differ in a detail not shown here. Equal entries are not always repeated. “Also recorded” adds a separate entry of the source.
Key:
Male Wistar rats [1] = assay: Antioxidant enzyme activities (SOD, CAT, GPx, GR, GST) in rat liver homogenate, in vivo paracetamol model; conditions: for CAT / GPx / GR / GST / SOD: rat liver homogenate
Description: The animals were divided into six groups (n = 6). […] The animals in all groups were sacrificed on the eighth day of the beginning of the experiment. Livers were taken for assessment of biochemical parameters. For all following experiments the excised livers were washed out with cold saline solution (0.9% NaCl), blotted dray, weighed, and homogenized with appropriate buffers. The livers were rinsed in ice-cold physiological saline and minced with scissors. […] Catalase (CAT) activity was determined by measuring the decrease in absorbance at 240 nm. […] SOD activity was expressed as nmol of epinephrine that are prevented from autoxidation after addition of the sample. […] The rate of disappearance of NADPH with time was determined by monitoring absorbance at 340 nm. Results are expressed in nmol/mg. Glutathione reductase activity (GR) was measured according to the method of Pinto et al. by following NADPH oxidation spectrophotometrically at 340 nm and using an extinction coefficient of 6.22 mM^−1 cm^−1. […] The enzyme activity is expressed as nmol of CDNB-GSH conjugate formed/min/mg protein.

Male Wistar rats [2] = assay: Lipid peroxidation (MDA) in rat liver homogenate, in vivo paracetamol model; conditions: for MDA: rat liver homogenate
Experimental: The animals were divided into six groups (n = 6). […] The animals in all groups were sacrificed on the eighth day of the beginning of the experiment. Livers were taken for assessment of biochemical parameters. For all following experiments the excised livers were washed out with cold saline solution (0.9% NaCl), blotted dray, weighed, and homogenized with appropriate buffers. Lipid peroxidation was determined by measuring the rate of production of thiobarbituric acid reactive substances (TBARS) (expressed as malondialdehyde (MDA) equivalents) described by Polizio and Peña with slight modifications. Briefly one volume of homogenate was mixed with 1 mL 25% trichloroacetic acid (TCA) and 1 mL 0.67% thiobarbituric acid (TBA). Samples were then mixed thoroughly, heated for 20 min in a boiling water bath, cooled and centrifuged at 4000 rpm for 20 min. The absorbance of supernatant was measured at 535 nm against a blank that contained all the reagents except the tissue homogenate. MDA concentration was calculated using a molar extinction coefficient of 1.56 × 10^5 M^−1 cm^−1 and expressed in nmol/g wet tissue.

[3] = design: method as in earlier work; conditions: concentration range 0.5 mg/mL; cited from earlier work
Male Wistar rats [4] = assay: Histopathological study of liver; format: in vivo, rat
Description: The animals were divided into six groups (n = 6). […] The animals in all groups were sacrificed on the eighth day of the beginning of the experiment. Livers were taken for assessment of biochemical parameters. For all following experiments the excised livers were washed out with cold saline solution (0.9% NaCl), blotted dray, weighed, and homogenized with appropriate buffers. For light microscopic evaluation, liver tissues were fixed in 10% buffered formalin and then thin sections (4 μm) were subsequently stained with hematoxylin/eosin for general histological features determination. Sections were studied under light microscope Leica DM 500.

isolated rat hepatocytes = assay: Paracetamol-induced model of toxicity in isolated rat hepatocytes; conditions: 30 min preincubation with saponarin 60–0.006 μg/mL, then paracetamol 100 μmol for one hour; concentration-dependent
Experimental: The effect of saponarin was compared to those of silymarin (50–0.005 μg/mL). The following parameters were measured to assess the functional status of hepatocytes: cell viability, lactate dehydrogenase (LDH) activity, reduced glutathione (GSH) levels, and malondialdehyde (MDA) quantity. Cell viability was assessed by Trypan blue exclusion method [19]. The dye was used at a final concentration of 0.05% and cells were counted under light microscope (×100). At the end of incubation, the cells were recovered via centrifugation at 400 ×g at 4°C. The supernatant was used for LDH and MDA assessment as described by Bergmeyer et al. [21] and Fau at al. [19], respectively. GSH measurement following the method used by Fau at al. [19] was assessed in the sediment.

Male Wistar rats [5] = assay: Phase I of biotransformation: cytochrome P450, EMND and AH in rat liver microsomes after in vivo treatment
Experimental: The animals were divided into six groups (n = 6). […] The animals in all groups were sacrificed on the eighth day of the beginning of the experiment. Livers were taken for assessment of biochemical parameters. For all following experiments the excised livers were washed out with cold saline solution (0.9% NaCl), blotted dray, weighed, and homogenized with appropriate buffers. The excised, perfused, and minced livers were homogenized with 3 mL of 1.17% KCl than centrifugated at 10 000 ×g for 30 min. The supernatant fractions were further centrifugated at 105 000 ×g for 60 min. The resulting microsomal pellets were stored at −20°C until assayed. At the day of assay the microsomal pellets were resuspended and diluted with phosphate buffer EDTA (pH = 7.4). Liver protein concentration was measured, using the method of Lowry and was adjusted to 4 mg/mL. (1) Assessment of Cytochrome P450 Quantity. Cytochrome P450 was quantified spectrophotometrically as a complex with CO at 450 nm and expressed as nmol/mg^−1 protein [28]. […] The method used 4-hydroxylation of aniline to 4-aminophenol that is chemically converted to a phenol-indophenol complex with an absorption maximum at 630 nm. Enzyme activity was expressed as nmol/min/mg. […] The enzyme activity was evaluated by the formation of formaldehyde, trapped in the solution as semicarbazone, and measured by the colorimetric procedure of Nash, at 415 nm. Enzyme activity was expressed as nmol/min/mg.

Male Wistar rats [6] = assay: GSH level in rat liver homogenate, in vivo paracetamol model; conditions: for GSH: rat liver homogenate
Experimental: The animals were divided into six groups (n = 6). […] The animals in all groups were sacrificed on the eighth day of the beginning of the experiment. Livers were taken for assessment of biochemical parameters. For all following experiments the excised livers were washed out with cold saline solution (0.9% NaCl), blotted dray, weighed, and homogenized with appropriate buffers. GSH was assessed by measuring nonprotein sulfhydryls after precipitation of proteins with TCA, using the method described by Bump et al.. Briefly, tissues were homogenized in 5% trichloroacetic acid (TCA) and centrifugated for 20 min at 4 000 ×g. […] The absorbance was determined at 412 nm and the results expressed as nmol/g wet tissue.

[7] = saponarin 80 mg/kg bw/day p.o. 7 days, alone
[8] = saponarin pretreatment seven days then single i.p. paracetamol, compared to paracetamol alone
[9] = saponarin 80 mg/kg p.o. 7 days pretreatment then paracetamol 600 mg/kg i.p.
[10] = rat liver microsomes, saponarin 80 mg/kg bw/day p.o. 7 days, alone
[11] = saponarin alone 80 mg/kg p.o. 7 days, vs control
[12] = paracetamol 600 mg/kg i.p. alone, compared to control animals
[13] = paracetamol 600 mg/kg i.p. alone

apigenin 6-C-glucosyl-7-O-glucoside [saponarin]
CAT (Male Wistar rats [1]; [7]): 110.4 ± 16 μmol H2O2/min/mg protein
GPx (Male Wistar rats [1]; [7]): 0.125 ± 0.02 nmol/min/mg protein
GR (Male Wistar rats [1]; [7]): 0.207 ± 0.03 nmol/min/mg protein
GST (Male Wistar rats [1]; [7]): 0.208 ± 0.02 nmol CDNB-GSH conjugate formed/min/mg protein
SOD (Male Wistar rats [1]; [7]): 0.158 ± 0.015 nmol/min/mg protein
increase in GPx activity (Male Wistar rats [1]; [8]): 21%
increase in GR activity (Male Wistar rats [1]; [8]): 39%
increase in GST activity (Male Wistar rats [1]; [8]): 21%
increase in SOD activity (Male Wistar rats [1]; [8]): 24%
MDA (Male Wistar rats [2]; [7]): 0.635 ± 0.07 nmol/g protein
MDA content relative to control level (Male Wistar rats [2]; [9]): restored to the control level
reduction of MDA in rat liver homogenate (Male Wistar rats [2]; saponarin 80 mg/kg p.o. 7 days pretreatment then paracetamol 600 mg/kg i.p., compared to PC-treated group): 18%
inhibition of DPPH radical [3]: 88.8%
liver histopathology (Male Wistar rats [4]; rats pretreated with saponarin (80 mg/kg p.o. 7 days) then challenged with paracetamol 600 mg/kg i.p.): lower intensity of mononuclear accumulations and the presence of single cells showing intracellular oedema; also recorded: significant improvement of hepatocellular architecture
protection against paracetamol-induced injury (cell viability, LDH activity, MDA quantity, GSH levels) (isolated rat hepatocytes): prevented the liver injury
AH activity (Male Wistar rats [5]; [10]): 0.047 ± 0.004 nmol/mg protein
Cytochrome P450 (Male Wistar rats [5]; [10]): 0.244 ± 0.05 nmol/mg protein
EMND activity (Male Wistar rats [5]; [10]): 0.371 ± 0.011 nmol/mg protein
decrease in AH activity (Male Wistar rats [5]; [11]): 37%
decrease in EMND activity (Male Wistar rats [5]; [11]): 24%
decrease in total P450 quantity (Male Wistar rats [5]; [11]): 25%
GSH (Male Wistar rats [6]; [7]): 5.14 ± 0.31 nmol/g protein
GSH levels compared to the paracetamol-only group (Male Wistar rats [6]; [9]): significantly higher levels of GSH

CC(=O)Nc1ccc(O)cc1 [paracetamol]
decrease in CAT activity (Male Wistar rats [1]; [12]): 27%
decrease in GPx activity (Male Wistar rats [1]; [12]): 31-32%
decrease in GR activity (Male Wistar rats [1]; [12]): 38%
decrease in GST activity (Male Wistar rats [1]; [12]): 31% and 31-32%
CAT (Male Wistar rats [1]; [13]): 88.3 ± 10 μmol H2O2/min/mg protein
GPx (Male Wistar rats [1]; [13]): 0.089 ± 0.01 nmol/min/mg protein
GR (Male Wistar rats [1]; [13]): 0.137 ± 0.02 nmol/min/mg protein
GST (Male Wistar rats [1]; [13]): 0.160 ± 0.01 nmol CDNB-GSH conjugate formed/min/mg protein
SOD (Male Wistar rats [1]; [13]): 0.114 ± 0.012 nmol/min/mg protein
increase of MDA level in rat liver homogenate (Male Wistar rats [2]; paracetamol 600 mg/kg i.p. alone, vs control animals): 30%
MDA (Male Wistar rats [2]; [13]): 0.854 ± 0.04 nmol/g protein
liver histopathology (Male Wistar rats [4]; paracetamol 600 mg/kg i.p. alone, hematoxylin/eosin, light microscopy): treatment-related changes associated with hepatotoxicity; also recorded: centriacinar and microvesicular accumulation of fats
reduction in GSH levels in rat liver homogenate (Male Wistar rats [6]; [12]): 83%
GSH (Male Wistar rats [6]; [13]): 0.96 ± 0.05 nmol/g protein

Source: paper PMC3708395, “Hepatoprotective and Antioxidant Effects of Saponarin, Isolated from Gypsophila trichotoma Wend. on Paracetamol-Induced Liver Damage in Rats” (BioMed Research International, 2013)
